Results reported in patent US20250352458A1, “IMPROVEMENTS IN OR RELATING TO EXTRACTS” (Givaudan SA, priority 2020, published 2025).
Several values for one entry are separate records, joined by “and”; a condition that tells them apart may be missing. Equal values may be shown once.

Tests used:
[1] = tested on: hiPSC derived sebocytes; assay: In vitro lipogenesis inhibition in sebocytes derived from iPS with three ethnicities; type: cell-based, human; details: 10 μM (RA10), each ethnicity, arachidonic acid induced
[2] = tested on: C. granulosum (ATCC 25564); assay: MIC evaluation, optical density and percentage of inhibition; type: cell-based, Cutibacterium granulosum
Text: (§1) The minimum inhibitory concentration of the following active ingredients has been assessed: • Mangifera indica extract (in propanediol/water 75/25); • Vehicule (propanediol/water 75/25, expressed as Activolo3-75%); • “Pool Mangiferin” which is the pure molecule mangiferin at the same concentration in the Mangifera indica extract in propanediol/water 75/25. • “Pool Mangifera” with is the mix of the 4 molecules (mangiferin, maclurin-C-glucoside, irifluophenone-C-glucoside, gallotanin) at the same concentration in the Mangifera indica extract in propane-diol/water 75/25. […] After two days, the bacterial concentration was adjusted in reinforced clostridial broth to obtain a solution at 1.106 CFU/ml (5.104 CFU/well). […] Concentrations are expressed in % (m/v). […] The diluted bacterial suspension was added to columns 2 to 12. RCB medium was added to column 1 as negative control. Optical density was determined, which correlates to the bacterial growth.

[3] = tested on: H. influenzae (ATCC 49766); assay: as above; type: cell-based, Haemophilus influenza
Text: The minimum inhibitory concentration of the following active ingredients has been assessed: • Mangifera indica extract (in propanediol/water 75/25); • Vehicule (propanediol/water 75/25, expressed as Activolo3-75%); • “Pool Mangiferin” which is the pure molecule mangiferin at the same concentration in the Mangifera indica extract in propanediol/water 75/25. • “Pool Mangifera” with is the mix of the 4 molecules (mangiferin, maclurin-C-glucoside, irifluophenone-C-glucoside, gallotanin) at the same concentration in the Mangifera indica extract in propane-diol/water 75/25.
H. influenzae (ATCC 49766) was cultured in Mueller Hinton broth as recommended by ATCC with 5% CO2. The Bacterial concentration was adjusted in Mueller Hinton broth to obtain a solution at 1.106 CFU/ml (5.104 CFU/well) (launch of culture at D-2). […] Two day later, the inhibition of H. influenzae was evaluated using Colony counter IUL instruments, flash and go model (reading at D2).
Concentrations are expressed in % (m/v).
The diluted bacterial suspension was added to columns 2 to 12. RCB medium was added to column 1 as negative control.
Optical density was determined, which correlates to the bacterial growth. Thereafter, an inhibition value (%) was determined for each condition using the following formula: […]
The percentage of inhibition must be higher or equal than 90% to reach the MIC.

[4] = tested on: Propionibacterium acnes (C. acnes) phylotype IA1 ATCC 6919; assay: as above; type: cell-based
Text: as §1

[5] = tested on: S. aureus (ATCC 33592); assay: as above; type: cell-based, Staphylococcus aureus
Text: The minimum inhibitory concentration of the following active ingredients has been assessed: • Mangifera indica extract (in propanediol/water 75/25); • Vehicule (propanediol/water 75/25, expressed as Activolo3-75%); • “Pool Mangiferin” which is the pure molecule mangiferin at the same concentration in the Mangifera indica extract in propanediol/water 75/25. • “Pool Mangifera” with is the mix of the 4 molecules (mangiferin, maclurin-C-glucoside, irifluophenone-C-glucoside, gallotanin) at the same concentration in the Mangifera indica extract in propane-diol/water 75/25. S. aureus: The day before the experiment S. aureus (ATCC 33592) was plated and grown overnight at 37° C. Colonies were resuspended in 5 mL of TSB (Tryptic Soy Broth) to obtain a 0.5 McFarland D O (≈1.10^8 CFU/ml) (launch of culture at D-1). […] Concentrations are expressed in % (m/v). […] The diluted bacterial suspension was added to columns 2 to 12. RCB medium was added to column 1 as negative control. Optical density was determined, which correlates to the bacterial growth.

[6] = tested on: human sebaceous glands of skin explants; assay: Ex vivo sebum quantification, lipids of sebaceous glands by GC/MS; type: cell-based
Procedure: Skin explants from lifting of 3 donors (average 56.7 years old) were treated in systemic every day during 5 days in presence of dihydrotestosterone (DHT) at 30UM to induce an increase of lipogenesis mimicking a high production of sebum condition (stimulated condition) or left untreated (control condition). In parallel, skin explants were treated in presence of 0.5% of dibenzoyle peroxide (POB, positive reference) or with the Mangifera indica extract at 1% and 2%.
The tissues are extracted with an aqueous cocktail overnight at 4° C. They are then treated to take off the epidermis. A specific technique is used to recover the glands attached to these hair shafts.
After rinsing in an isotonic medium, the epidermis and its appendages are transferred to a watch glass. The sebaceous glands attached to the hair shaft of hair follicles are cut at the level of the pilosebaceous canal and deposited against the walls of the recovery vials. The sebaceous glands are recovered after dilaceration of the epidermal fragments. The glands are collected in a batch of 10 units. A washing of the glands is then performed to eliminate any contaminations of non-sebaceous origin. The sebum is then extracted with an organic cocktail overnight at room temperature. From this lipid extract, purification was carried out in order to isolate the different classes of lipids.
The identification and quantification of the different classes of lipids was realized by GC/MS.
The results are expressed in percent of the stimulated control (Untreated+DHT 30 μM). Bonferroni test multi comparison was used to do statistical analysis with #p<0.1, *p<0.05, **p<0.01, ***p<0.001.

[7] = tested on: sebaceous glands of skin explants NativeSkin; assay: Ex vivo sebaceous gland 3D volume in skin explants; type: cell-based, human; details: linoleic acid at 10% in Carbopol, 7 days, vs control
Procedure: The test was carried out on 4 skin explants NativeSkin® (average 40.75 years old) from pelvic area, a full-thickness skin biopsy embedded in a solid and nourishing matrix while its epidermal surface is left in contact with air. The skin biopsy is firmly embedded in the matrix that prevents any lateral diffusion of topically applied formulations. The skin explants were treated topically once a day for 7 days in presence of linoleic acid at 10% in Carbopol Ultrez 10 in order to stimulate the lipogenesis and mimic the condition of sebum excess (stimulated condition) or treated with Carbopol only (control condition). This induction mimics a high production of sebum. In parallel, skin explants were treated in presence of Mangifera indica extract at 1% and 2% formulated in Carbopol. After treatment, skin explants were fixed in formalin. After fixation, skin explants were cleared with methanol and a mix of Benzyl Benzoate and Benzyl Alcohol. All samples were observed by fluorescence light sheet microscopy (SPIM, homemade fabrication). Stack of images were taken per sample. 3D pictures of the glands were reconstructed and the size of each sebaceous gland was quantified using Amira® software. Results were represented with the mean volume of sebaceous gland +/−standard error to the mean. […] The results are expressed in percent of the stimulated control (10% linoleic acid). […]

[8] = tested on: human sebocyte cell line SEBO662AR; assay: In vitro lipogenesis inhibition in human sebocytes cell line (Bodipy lipid labeling); type: cell-based
Procedure: The sebocytes were seeded in 96-well plates (50 000 cells/well) and cultured for 24 hours in culture medium. The medium was then removed and replaced by assay medium containing the tested products including Mangifera indica extract at 0.3%, Mangiferin alone or pooled active molecules (four main phytomarkers) at their equivalent dosage in the extract at 0.3%. In the control assay medium, no product was contained. The cells were preincubated for 4 hours at those conditions. Then, the lipogenic mix (containing vitamin C, vitamin D3, insulin and calcium, and no androgens) was added in order to mimic the condition of excess of sebum, and the cells were incubated for 7 days. At mid-term, i.e. after 3 days of incubation, half of the medium was removed and the treatments were renewed (including lipogenic mix stimulation). […]
At the end of the incubation, the cells were rinsed, fixed and permeabilized. […] The labeling was quantified by the measurement of the fluorescence intensity normalized to the total number of cells (Integration of numerical data with the Developer Toolbox 1.5, GE Healthcare software). Results were expressed as Fluorescence intensity normalized to the number of cells, % stimulated control and % inhibition. The fluorescence intensity was analyzed exclusively in the lipid droplets (image analysis program based on object segmentation). […]

[9] = Ciprofloxacin 16 10^−4 % (m/v), plate col. 8-12
[10] = DHT 30 μM stimulation vs untreated
[11] = POB at 0.5%, DHT stimulated, 5 days

CC1=C(/C=C/C(C)=C/C=C/C(C)=C\C(=O)O)C(C)(C)CCC1 [13-cis-retinoic-acid]
lipids production [1]: significant reduction

O=C(O)c1cn(C2CC2)c2cc(N3CCNCC3)c(F)cc2c1=O [Ciprofloxacin, reference compound]
Percentage of inhibition, C. granulosum [2, 9]: 97.8% and 99.0% and 98.5% | inhibition of C. granulosum ([2]; Ciprofloxacin, text of Table 4b): 99% | Percentage of inhibition, H. influenza [3, 9]: 99.7% and 99.0% | inhibition of H. influenza ([3]; Ciprofloxacin, text of Table 6b): 99% | Percentage of inhibition, C. acnes [4, 9]: 99.3% and 98.8% | inhibition of P. acnes (FIG. 9) ([4]; Ciprofloxacin from 1×10^−4%): 99% | inhibition of P. acnes ([4]; Ciprofloxacin, text of Table 3b): 99% | Percentage of inhibition, S. aureus [5, 9]: 99.4% | inhibition of S. aureus ([5]; Ciprofloxacin, text of Table 5b): 99%

C[C@]12CCC(=O)C[C@@H]1CC[C@@H]1[C@@H]2CC[C@]2(C)[C@@H](O)CC[C@@H]12 [DHT, dihydrotestosterone]
cholesterol content of sebum [6, 10]: no effect | free fatty acids content of sebum [6, 10]: significant increase | squalene content of sebum [6, 10]: significant increase | triglycerides content of sebum [6, 10]: significant increase

CCCCC/C=C\C/C=C\CCCCCCCC(=O)O [Linoleic acid, linoleic acid]
change of 3D volume of sebaceous glands [7]: +37%

O=c1c2cc(O)c(O)cc2oc2cc(O)c([C@@H]3O[C@H](CO)[C@@H](O)[C@H](O)[C@H]3O)c(O)c12 [Mangiferin]
reduction of lipogenesis compared with lipogenic mix condition ([8]; Mangiferin at the same amount as available in the extracts): −22%

CCCCCCCCCCCCCCOc1ccc(C(=O)OCC(=O)N(C)CC(=O)OCC)o1 [Olumacostat glasaretil, reference compound]
reduction of lipid production compared with lipogenic mix condition ([8]; Olumacostat glasaretyl at 1 μm, 7 days): −37%

O=C(OOC(=O)c1ccccc1)c1ccccc1 [POB, dibenzoyle peroxide]
free fatty acids content of sebum [6, 11]: significant reduction | squalene content of sebum [6, 11]: significant reduction | triglycerides content of sebum [6, 11]: significant reduction
